The values that follow come from patent publication US5245034A, “Compound having vessel smooth muscle relaxation activity” (Hidaka; Kiroyoshi, priority 1988, dated 1993).

The subject of experiment [1] is superior mesenteric artery (contracted by potassium chloride). As to the kind of experiment: Vessel Smooth Muscle Relaxation Action (V.R.). Type of experiment: cell-based, rabbit. As to conditions: Oryctolagus cuniculus, read-out: V.R. (ED50). The source says: The specimen was suspended by loading a strain in Krebs-Henseleit solution through which an oxygen gas containing 5% carbon dioxide was bubbled. The specimen was contracted by adding potassium chloride to maintain a predetermined strain. Thereafter, a test compound was cumulatively administrated.

In experiment [2] the test system is washed platelets. Nature of the experiment: Platelet Agglutination Inhibition (P.A.), collagen-induced. Type of experiment: cell-based, human (healthy person). To be noted: Homo sapiens, read-out: P.A. (IC50). The protocol: To this suspension was added one sixth volume of ACD solution, and the whole was further centrifuged at 1500×G for 5 minutes to prepare a platelet pellet. The platelet pellet was then suspended in a modified HEPES Tyrode solution to obtain about 3×10^5 /μl in washed platelet suspension.
To 270 μl of the washed platelet suspension was added 3 μl of a solution of a test compound dissolved in an appropriate medium in different concentration, and the mixture was pre-incubated at 37° C. for 2 minutes.
As a control, the above-mentioned procedure was carried out except that the test medium without a test compound was used, and the absorbance before addition of collagen and the maximum absorbance after addition of collagen were measured, and the difference between both absorbances was taken as 100% agglutination.
For test compound, the absorbance before an addition of collagen and the maximum absorbance after an addition of collagen were measured, and a percent of the inhibition was determined, compared with the control.

The target of experiment [3] is Calmodulin-Dependent Phosphodiesterase (Ca^2+ PDE). As to the kind of experiment: Calmodulin-Dependent Phosphodiesterase Inhibition (Ca^2+ PDE). Type of experiment: biochemical, rat. To be noted: [^3 H]-cGMP, 30° C. Summed up:
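Partially purified rat brain Ca²⁺ PDE with calf brain calmodulin, Tris-HCl pH 8.0, MgCl2, CaCl2; [³H]-cGMP substrate, 15 min at 30 °C. Product converted by 5'-nucleotidase, [³H]-guanosine isolated on cation exchange and counted. IC50 as μM giving 50% inhibition.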

The mark [4] stands for this setting: concentration relaxing KCl-contracted strain to 50%, cumulative administration.
Where [5] appears, read: washed platelets, collagen, 37° C.

Like-named read-outs stand apart in the source and are kept apart here.

By IC50 is commonly meant the concentration at which inhibition is half-maximal. In the case of `O=C(OCc1ccccc1)N1CCN(C(=O)[C@H](Cc2ccc(O)cc2)NS(=O)(=O)c2cccc3cnccc23)CC1` [Example 29, 1-Benzyloxycarbonyl-4-[N-(5-Isoquinolinesulfonyl)Tyrosyl]Piperazine], the EC50 in experiment [1] (setting [4]) came out at 7.6 µM. Moreover, the IC50 in experiment [2] (setting [5]) amounted to 73 µM.

Consider `CN(C(Cc1ccc(OS(=O)(=O)c2cccc3cnccc23)cc1)CN1CCN(c2ncccn2)CC1)S(=O)(=O)c1cccc2cnccc12` (stereo not shown) [Example 41, N-{1-[p-(5-isoquinolinesulfonyloxy)benzyl]-2-[4-(2-pyrimidyl)piperazinyl]ethyl}-N-methyl-5-isoquinolinesulfonamide], for which the EC50 in experiment [1] (setting [4]) is 1.8 µM. Also, the IC50 in experiment [2] (setting [5]) came out at 10 µM.

As to `CN(C(Cc1ccc(O)cc1)CN1CCN(c2ccc(F)cc2)CC1)S(=O)(=O)c1cccc2cnccc12` (stereo not shown) [Example 50, N-{1-(p-hydroxybenzyl)-2-[4-(p-fluorophenyl)piperazinyl]ethyl}-N-methyl-5-isoquinolinesulfonamide], the EC50 in experiment [1] (setting [4]) worked out at 0.67 µM. The IC50 in experiment [2] (setting [5]) worked out at 70 µM.

Consider `O=C(OCc1ccccc1)N1CCN(CC(Cc2ccc(O)cc2)NS(=O)(=O)c2cccc3cnccc23)CC1` (stereo not shown) [Example 68, N-[2-(4-benzyloxycarbonylpiperazinyl)-1-(p-hydroxybenzyl)ethyl]-5-isoquinolinesulfonamide], for which the EC50 in experiment [1] (setting [4]) was 3.3 ± 1.4 µM. In experiment [2] (setting [5]), the IC50 was found to be 6 µM.

For the compound `O=C(NCc1ccccc1)N1CCN(CC(Cc2ccc(O)cc2)NS(=O)(=O)c2cccc3cnccc23)CC1` (stereo not shown) [Example 71, N-[2-(4-benzylaminocarbonylpiperazinyl)-1-(p-hydroxybenzyl)ethyl]-5-isoquinolinesulfonamide], the EC50 in experiment [1] (setting [4]) came to 14 µM. For the same compound, the IC50 in experiment [2] (setting [5]) was determined as 93 µM.

Regarding `CN(C(Cc1ccc(O)cc1)CN1CCCN(C(=O)OCc2ccccc2)CC1)S(=O)(=O)c1cccc2cnccc12` (stereo not shown) [Example 113], the EC50 in experiment [1] (setting [4]) amounted to 0.88 µM. The IC50 in experiment [3] amounted to 1.2 µM; in experiment [2] (setting [5]), 20 µM.

Regarding `CN(C(Cc1ccc(O)cc1)CN1CCCNCC1)S(=O)(=O)c1cccc2cnccc12` (stereo not shown) [Example 114, N-[1-(p-hydroxy)benzyl-2-homopiperazinylethyl]-N-methyl-5-isoquinolinesulfonamide], the EC50 in experiment [1] (setting [4]) came to 54 µM. Also, the IC50 in experiment [2] (setting [5]) was 100 µM.

Regarding `O=C(OCc1ccccc1)N1CCCN(C(=O)[C@H](Cc2ccc(O)cc2)NS(=O)(=O)c2cccc3cnccc23)CC1` [Example 123, 1-Benzyloxycarbonyl-4-[N-(5-Isoquinolinesulfonyl)Tyrosyl]Homopiperazine], in experiment [1] (setting [4]), the EC50 worked out at 4.8 µM. Moreover, the IC50 in experiment [2] (setting [5]) stood at 22 µM.

As for `O=S(=O)(Nc1ccccc1NCC=Cc1cccnc1)c1cccc2cnccc12` [Example 145, N-{2-[3-(3-pyridyl)allylamino]phenyl}-5-isoquinolinesulfonamide], the IC50 in experiment [2] (setting [5]) was determined as 12 µM.

Regarding `CC(C=Cc1ccc(Cl)cc1)NCCNS(=O)(=O)c1cccc2cnccc12` (stereo not shown) [Example 153], the EC50 in experiment [1] (setting [4]) is 1.5 µM. For the same compound, the IC50 in experiment [2] (setting [5]) was 25 µM.

`CC(C=Cc1ccccc1)NCCNS(=O)(=O)c1cccc2cnccc12` (stereo not drawn) [Example 154, N-[2-(α-Methylcinnamylamino)Ethyl]-5-Isoquinolinesulfonamide]: the IC50 in experiment [2] (setting [5]) turned out to be 60 µM.

Consider `CC(C=Cc1ccc(F)cc1F)NCCNS(=O)(=O)c1cccc2cnccc12` (stereo not shown) [Example 155], for which, in experiment [1] (setting [4]), the EC50 was found to be 4.1 µM. Further, in experiment [2] (setting [5]), the IC50 is 55 µM.

As to `CC(C=Cc1ccc(Cl)cc1Cl)NCCNS(=O)(=O)c1cccc2cnccc12` (stereo not drawn) [Example 156, N-[2-(2,4-Dichloro-α-Methylcinnamylamino)Ethyl]-5-Isoquinolinesulfonamide], the EC50 in experiment [1] (setting [4]) is 4.4 µM. Moreover, the IC50 in experiment [3] and in experiment [2] (setting [5]) was 19 µM throughout.

Take `CC(C=Cc1cccc(Cl)c1)NCCNS(=O)(=O)c1cccc2cnccc12` (stereo not shown) [Example 157]: the EC50 in experiment [1] (setting [4]) is 3.2 µM. Also, the IC50 in experiment [3] was 8.6 µM; in experiment [2] (setting [5]), 36 µM.

For `CC(C=Cc1ccc([N+](=O)[O-])cc1)NCCNS(=O)(=O)c1cccc2cnccc12` (stereo not shown) [Example 159], in experiment [1] (setting [4]), the EC50 is 5.1 µM. The IC50 in experiment [3] turned out to be 92 µM; in experiment [2] (setting [5]), 24 µM.

As for `Cc1ccc(C=CC(C)NCCNS(=O)(=O)c2cccc3cnccc23)cc1` (stereo not shown) [Example 160], the EC50 in experiment [1] (setting [4]) is 1.8 µM. In addition, the IC50 in experiment [2] (setting [5]) was determined as 56 µM.

For `CC(C=Cc1ccc(F)cc1)NCCNS(=O)(=O)c1cccc2cnccc12` (stereo not drawn) [Example 166, N-[2-(4-Fluoro-α-Methylcinnamylamino)Ethyl]-5-Isoquinolinesulfonamide], the EC50 in experiment [1] (setting [4]) was 1.4 µM. Also, the IC50 in experiment [2] (setting [5]) is 90 µM.

In the case of `CC(C=Cc1ccc(Br)cc1)NCCNS(=O)(=O)c1cccc2cnccc12` (stereo not shown) [Example 167], the EC50 in experiment [1] (setting [4]) came out at 1.2 µM. Besides, the IC50 in experiment [2] (setting [5]) was found to be 52 µM.

`CC(C=Cc1ccc(C(C)C)cc1)NCCNS(=O)(=O)c1cccc2cnccc12` (stereo not shown) [Example 168]: the EC50 in experiment [1] (setting [4]) was determined as 3.6 µM. Besides, the IC50 in experiment [2] (setting [5]) was 26 µM.

Consider `O=S(=O)(NCCNCC=Cc1ccc(Cl)cc1)c1cccc2cnccc12` [Example 172, N-[2-(4-Chlorocinnamylamino)ethyl]-5-Isoquinolinesulfonamide], for which the EC50 in experiment [1] (setting [4]) is 1 µM. The figures for the IC50 in experiment [3] and in experiment [2] (setting [5]) were 9.4 µM and 51 µM, respectively.

As for `O=S(=O)(NCCNCC=Cc1ccc(Br)cc1)c1cccc2cnccc12` [Example 176, N-[2-(4-Bromophenylcinnamylamino)ethyl]-5-Isoquinolinesulfonamide], the EC50 in experiment [1] worked out at 1.2 µM. Further, the IC50 in experiment [3] is 8.5 µM; in experiment [2], 55 µM.

Turning to `CC(C)c1ccc(C=CCNCCNS(=O)(=O)c2cccc3cnccc23)cc1` [Example 177], the EC50 in experiment [1] (setting [4]) was 2.7 µM. Further, the IC50 is 24 µM in experiment [3] and 56 µM in experiment [2] (setting [5]).

Regarding `O=S(=O)(NCCNCC=Cc1ccc(C(F)(F)F)cc1)c1cccc2cnccc12` [Example 179, N-[2-(4-Trifluoromethylcinnamylamino)Ethyl]-5-Isoquinolinesulfonamide], the EC50 in experiment [1] (setting [4]) amounted to 2.8 µM. The IC50 is 7.8 µM in experiment [3] and 51 µM in experiment [2] (setting [5]).

`O=S(=O)(NCCNCC=CC=CC=Cc1ccc(C(F)(F)F)cc1)c1cccc2cnccc12` [Example 181]: in experiment [1] (setting [4]), the EC50 stood at 8.4 µM. Further, the IC50 came out at 4.7 µM in experiment [3] and 38 µM in experiment [2] (setting [5]).
